Source: ChEMBL document CHEMBL1697731, “Cheminformatics analysis of assertions mined from literature that describe drug-induced liver injury in different species” (Chem Res Toxicol, 2010)

Tests used:
Hepatotoxicity [1] = experiment: Literature-mined compound from Fourches et al multi-species drug-induced liver injury (DILI) dataset, effect in rodents; details: rodentia
Hepatotoxicity [2] = experiment: Literature-mined compound from Fourches et al multi-species drug-induced liver injury (DILI) dataset, effect in humans; details: human
Hepatotoxicity [3] = experiment: Literature-mined compound from Fourches et al multi-species drug-induced liver injury (DILI) dataset, effect in non-rodents

Structure (SMILES) | Hepatotoxicity (Hepatotoxicity [1]) | Hepatotoxicity (Hepatotoxicity [2]) | Hepatotoxicity (Hepatotoxicity [3]) | Hepatotoxicity (Hepatotoxicity [1]; Liver) | Hepatotoxicity (Hepatotoxicity [2]; Liver) | Hepatotoxicity (Hepatotoxicity [3]; Liver)
O=C1c2cccc(O)c2C(=O)c2c(O)cccc21 [DANTHRON] | drug-induced liver injury reported | no drug-induced liver injury reported | no drug-induced liver injury reported |  |  | 
COc1ccc(OC)c(Cc2cnc3nc(N)nc(N)c3c2C)c1 [PIRITREXIM] | no drug-induced liver injury reported | drug-induced liver injury reported | no drug-induced liver injury reported |  |  | 
CC(=O)OCC(=O)[C@@]1(O)CC[C@H]2[C@@H]3CCC4=CC(=O)CC[C@]4(C)[C@H]3[C@@H](O)C[C@@]21C [HYDROCORTISONE ACETATE] | drug-induced liver injury reported | no drug-induced liver injury reported | no drug-induced liver injury reported |  |  | 
CN(C)[C@@H]1C(O)=C(C(N)=O)C(=O)[C@@]2(O)C(O)=C3C(=O)c4c(O)ccc(Cl)c4[C@@](C)(O)[C@H]3C[C@@H]12 [CHLORTETRACYCLINE] | drug-induced liver injury reported | no drug-induced liver injury reported | drug-induced liver injury reported |  |  | 
Cc1ccc(=O)n(-c2ccccc2)c1 [PIRFENIDONE] | drug-induced liver injury reported | no drug-induced liver injury reported | drug-induced liver injury reported |  |  | 
CC(CN1c2ccccc2Sc2ccccc21)N(C)C (stereo not drawn) [PROMETHAZINE] | drug-induced liver injury reported | no drug-induced liver injury reported | drug-induced liver injury reported |  |  | 
O=C([O-])CCCc1ccccc1.[Na+] [SODIUM PHENYLBUTYRATE] | no drug-induced liver injury reported | drug-induced liver injury reported | no drug-induced liver injury reported |  |  | 
CC#CCC(C)[C@H](O)/C=C/[C@@H]1[C@H]2c3cccc(CCCC(=O)O)c3O[C@H]2C[C@H]1O (stereo partly drawn) [BERAPROST] | drug-induced liver injury reported | no drug-induced liver injury reported | no drug-induced liver injury reported |  |  | 
COc1ccc2c3c1O[C@H]1[C@@H](O)C=C[C@H]4[C@@H](C2)N(C)CC[C@@]341 [CODEINE] |  |  |  | drug-induced liver injury reported | drug-induced liver injury reported | no drug-induced liver injury reported
NC(=O)c1cccnc1 [NIACINAMIDE] | drug-induced liver injury reported | drug-induced liver injury reported | no drug-induced liver injury reported |  |  | 
CCc1nc(N)nc(N)c1-c1ccc(Cl)cc1 [PYRIMETHAMINE] | drug-induced liver injury reported | drug-induced liver injury reported | no drug-induced liver injury reported |  |  | 
O=C(N[C@H](CO)[C@H](O)c1ccc([N+](=O)[O-])cc1)C(Cl)Cl [CHLORAMPHENICOL] | drug-induced liver injury reported | drug-induced liver injury reported | no drug-induced liver injury reported |  |  | 
CO[C@H](C(=O)[C@@H](O)[C@@H](C)O)[C@@H]1Cc2cc3cc(O[C@H]4C[C@@H](O[C@H]5C[C@@H](O)[C@H](O)[C@@H](C)O5)[C@H](O)[C@@H](C)O4)c(C)c(O)c3c(O)c2C(=O)[C@H]1O[C@H]1C[C@@H](O[C@H]2C[C@@H](O[C@H]3C[C@](C)(O)[C@H](O)[C@@H](C)O3)[C@@H](O)[C@@H](C)O2)[C@H](O)[C@@H](C)O1 [PLICAMYCIN] | drug-induced liver injury reported | drug-induced liver injury reported | no drug-induced liver injury reported |  |  | 
COc1cc(NC(C)CCCN)c2ncccc2c1 (stereo not drawn) [PRIMAQUINE] | drug-induced liver injury reported | drug-induced liver injury reported | no drug-induced liver injury reported |  |  | 
COc1cc([C@@H]2c3cc4c(cc3[C@H](O)[C@H]3COC(=O)[C@H]23)OCO4)cc(OC)c1OC [PODOFILOX] | drug-induced liver injury reported | no drug-induced liver injury reported | no drug-induced liver injury reported |  |  | 
CC(C(=O)O)c1ccc(C(=O)c2ccccc2)s1 (stereo not drawn) [TIAPROFENIC ACID] | drug-induced liver injury reported | no drug-induced liver injury reported | no drug-induced liver injury reported |  |  | 
NCCCC[C@H](NC(=O)[C@@H]1CCCN1C(=O)[C@@H]1CSSC[C@H](N)C(=O)N[C@@H](Cc2ccccc2)C(=O)N[C@@H](Cc2ccccc2)C(=O)N[C@@H](CCC(N)=O)C(=O)N[C@@H](CC(N)=O)C(=O)N1)C(=O)NCC(N)=O [FELYPRESSIN] | no drug-induced liver injury reported | no drug-induced liver injury reported | drug-induced liver injury reported |  |  | 
C[C@]12CC[C@@H]3c4ccc(O)cc4CC[C@H]3[C@@H]1CC[C@@H]2O [ESTRADIOL] | drug-induced liver injury reported | drug-induced liver injury reported | drug-induced liver injury reported |  |  | 
CCC(=O)O[C@](Cc1ccccc1)(c1ccccc1)[C@H](C)CN(C)C [PROPOXYPHENE] | drug-induced liver injury reported | drug-induced liver injury reported | no drug-induced liver injury reported |  |  | 
CO[C@H]1C[C@H](O[C@H]2[C@H](C)[C@@H](O[C@@H]3O[C@H](C)C[C@H](N(C)C)[C@H]3OC(C)=O)[C@@H](C)C[C@@]3(CO3)C(=O)[C@H](C)[C@@H](OC(C)=O)[C@@H](C)[C@@H](C)OC(=O)[C@@H]2C)O[C@@H](C)[C@@H]1OC(C)=O [TROLEANDOMYCIN] | drug-induced liver injury reported | drug-induced liver injury reported | drug-induced liver injury reported |  |  | 
CCC[C@H](N[C@@H](C)C(=O)N1[C@H](C(=O)O)C[C@@H]2CCCC[C@@H]21)C(=O)OCC [PERINDOPRIL] | drug-induced liver injury reported | drug-induced liver injury reported | no drug-induced liver injury reported |  |  | 
